Assay results as given in patent US20230115945A1, “AMINOPYRIMIDINE COMPOUNDS” (TYRA BIOSCIENCES, INC., priority 2019, published 2023).

Legend:
Conditions in all cases: 11-point 3-fold dilution, qPCR readout
FGFR2 = molecular target: T1, FGFR2 (Homo sapiens, UniProt P21802); assay: Kinase binding assay (Kd), FGFR2
T1 construct: made in house; host or cells: E. coli host derived from BL21, infected with T7 phage
Protocol: (§1) Kinase-tagged T7 phage strains were prepared in an E. coli host derived from the BL21 strain. E. coli were grown to log-phase and infected with T7 phage and incubated with shaking at 32° C. until lysis. The lysates were centrifuged and filtered to remove cell debris. Streptavidin-coated magnetic beads were treated with biotinylated small molecule ligands for 30 minutes at room temperature to generate affinity resins for kinase assays. The liganded beads were blocked with excess biotin and washed with blocking buffer SeaBlock (Pierce), 1% BSA, 0.05% Tween 20, 1 mM DTT to remove unbound ligand and to reduce non-specific binding. Binding reactions were assembled by combining kinases, liganded affinity beads, and test compounds in 1× binding buffer (20% SeaBlock, 0.17×PBS, 0.05% Tween 20, 6 mM DTT).
(§2) Test compounds were prepared as 111X stocks in 100% DMSO. Kds were determined using an 11-point 3-fold compound dilution series with three DMSO control points. All compounds for Kd measurements are distributed by acoustic transfer (non-contact dispensing) in 100% DMSO. The compounds were then diluted directly into the assays such that the final concentration of DMSO was 0.9%. All reactions performed in polypropylene 384-well plate. Each was a final volume of 0.02 ml. The assay plates were incubated at room temperature with shaking for 1 hour and the affinity beads were washed with wash buffer (lx PBS, 0.05% Tween 20). The beads were then re-suspended in elution buffer (lx PBS, 0.05% Tween 20, 0.5 μM non-biotinylated affinity ligand) and incubated at room temperature with shaking for 30 minutes. The kinase concentration in the eluates was measured by qPCR.
(§3) Binding constants were calculated with a standard dose-response curve using the Hill equation: […]
(§4) The Hill Slope was set to −1. Curves were fitted using a non-linear least square fit with the Levenberg-Marquardt algorithm.

FGFR4 = molecular target: T2, FGFR4 (Homo sapiens, UniProt P22455); assay: Kinase binding assay (Kd), FGFR4
T2 construct: made in house; host or cells: E. coli host derived from BL21, infected with T7 phage
Protocol: as §1, §2, §3, §4

FGFR1 = molecular target: T3, FGFR1 (Homo sapiens, UniProt P11362); assay: Kinase binding assay (Kd), FGFR1
T3 construct: made in house; host or cells: E. coli host derived from BL21, infected with T7 phage
Protocol: as §1, §2, §3, §4

FGFR3 = molecular target: T4, FGFR3 (Homo sapiens, UniProt P22607); assay: Kinase binding assay (Kd), FGFR3
T4 construct: made in house; host or cells: E. coli host derived from BL21, infected with T7 phage
Protocol: as §1, §2, §3, §4

FGFR3 (V555M) = molecular target: T5, FGFR3 (V555M) (Homo sapiens, UniProt P22607, V555M); assay: Kinase binding assay (Kd), FGFR3 (V555M)
T5 construct: made in house; host or cells: E. coli host derived from BL21, infected with T7 phage
Protocol: as §1, §2, §3, §4

T3 sequence (P11362 22-822): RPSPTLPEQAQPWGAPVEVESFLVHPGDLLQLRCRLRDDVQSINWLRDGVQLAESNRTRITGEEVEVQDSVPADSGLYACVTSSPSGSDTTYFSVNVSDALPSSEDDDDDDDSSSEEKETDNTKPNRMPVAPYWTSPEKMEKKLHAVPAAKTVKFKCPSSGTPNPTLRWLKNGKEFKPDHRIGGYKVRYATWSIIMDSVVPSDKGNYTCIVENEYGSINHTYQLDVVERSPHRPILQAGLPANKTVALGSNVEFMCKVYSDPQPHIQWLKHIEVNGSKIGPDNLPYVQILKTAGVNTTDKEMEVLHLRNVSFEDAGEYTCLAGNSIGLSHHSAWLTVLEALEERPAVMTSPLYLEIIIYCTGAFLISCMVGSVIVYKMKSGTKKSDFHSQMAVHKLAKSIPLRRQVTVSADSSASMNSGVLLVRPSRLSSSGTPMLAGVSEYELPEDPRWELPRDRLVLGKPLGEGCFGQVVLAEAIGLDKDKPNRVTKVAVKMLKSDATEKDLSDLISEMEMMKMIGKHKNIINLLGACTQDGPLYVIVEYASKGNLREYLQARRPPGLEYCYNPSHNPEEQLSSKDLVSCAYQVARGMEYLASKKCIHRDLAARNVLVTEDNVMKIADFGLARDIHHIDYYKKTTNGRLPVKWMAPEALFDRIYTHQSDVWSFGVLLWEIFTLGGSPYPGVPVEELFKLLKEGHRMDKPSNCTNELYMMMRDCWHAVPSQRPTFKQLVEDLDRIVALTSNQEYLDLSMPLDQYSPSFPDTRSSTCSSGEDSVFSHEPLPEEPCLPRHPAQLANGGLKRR
T2 sequence (P22455 22-802): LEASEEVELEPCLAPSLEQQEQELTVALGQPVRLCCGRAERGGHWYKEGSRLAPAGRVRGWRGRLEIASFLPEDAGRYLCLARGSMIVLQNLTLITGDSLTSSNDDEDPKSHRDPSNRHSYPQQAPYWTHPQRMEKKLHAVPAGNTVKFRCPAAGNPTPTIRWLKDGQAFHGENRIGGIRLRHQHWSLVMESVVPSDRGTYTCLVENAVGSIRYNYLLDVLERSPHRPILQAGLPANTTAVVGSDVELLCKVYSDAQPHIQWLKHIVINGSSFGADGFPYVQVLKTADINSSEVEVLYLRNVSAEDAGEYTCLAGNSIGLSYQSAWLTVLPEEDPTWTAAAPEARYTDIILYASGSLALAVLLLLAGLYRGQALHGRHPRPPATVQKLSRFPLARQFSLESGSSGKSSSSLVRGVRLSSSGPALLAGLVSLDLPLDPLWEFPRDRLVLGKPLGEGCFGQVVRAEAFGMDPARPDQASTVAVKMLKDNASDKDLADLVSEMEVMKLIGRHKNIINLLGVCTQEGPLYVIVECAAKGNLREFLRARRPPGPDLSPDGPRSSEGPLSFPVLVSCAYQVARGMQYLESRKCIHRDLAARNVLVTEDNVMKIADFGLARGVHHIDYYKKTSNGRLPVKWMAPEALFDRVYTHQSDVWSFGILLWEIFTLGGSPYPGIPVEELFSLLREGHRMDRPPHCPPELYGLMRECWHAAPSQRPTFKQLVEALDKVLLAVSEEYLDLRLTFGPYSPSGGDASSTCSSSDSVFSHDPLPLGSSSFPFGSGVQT
T5 sequence (P22607 23-806 V555M): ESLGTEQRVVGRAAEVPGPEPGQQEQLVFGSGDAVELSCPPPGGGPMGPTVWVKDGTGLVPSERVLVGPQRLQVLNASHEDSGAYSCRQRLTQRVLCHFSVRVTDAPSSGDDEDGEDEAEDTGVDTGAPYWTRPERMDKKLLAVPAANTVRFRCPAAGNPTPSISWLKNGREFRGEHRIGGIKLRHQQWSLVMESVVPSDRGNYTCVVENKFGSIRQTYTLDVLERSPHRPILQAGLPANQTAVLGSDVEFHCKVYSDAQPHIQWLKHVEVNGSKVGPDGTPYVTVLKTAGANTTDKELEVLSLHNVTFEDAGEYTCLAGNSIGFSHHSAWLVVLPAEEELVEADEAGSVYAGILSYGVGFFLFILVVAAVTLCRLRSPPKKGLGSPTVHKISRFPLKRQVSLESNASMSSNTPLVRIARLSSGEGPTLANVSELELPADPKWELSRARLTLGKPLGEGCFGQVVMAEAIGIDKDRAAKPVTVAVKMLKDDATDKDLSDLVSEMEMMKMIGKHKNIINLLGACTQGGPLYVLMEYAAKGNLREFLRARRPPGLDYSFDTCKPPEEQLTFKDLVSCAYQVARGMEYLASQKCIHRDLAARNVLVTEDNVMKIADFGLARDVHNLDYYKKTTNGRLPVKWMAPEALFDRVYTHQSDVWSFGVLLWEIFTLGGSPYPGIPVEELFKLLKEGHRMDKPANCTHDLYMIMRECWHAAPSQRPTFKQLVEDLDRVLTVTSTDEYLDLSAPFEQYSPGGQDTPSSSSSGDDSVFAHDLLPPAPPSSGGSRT
T1 sequence (P21802 22-821): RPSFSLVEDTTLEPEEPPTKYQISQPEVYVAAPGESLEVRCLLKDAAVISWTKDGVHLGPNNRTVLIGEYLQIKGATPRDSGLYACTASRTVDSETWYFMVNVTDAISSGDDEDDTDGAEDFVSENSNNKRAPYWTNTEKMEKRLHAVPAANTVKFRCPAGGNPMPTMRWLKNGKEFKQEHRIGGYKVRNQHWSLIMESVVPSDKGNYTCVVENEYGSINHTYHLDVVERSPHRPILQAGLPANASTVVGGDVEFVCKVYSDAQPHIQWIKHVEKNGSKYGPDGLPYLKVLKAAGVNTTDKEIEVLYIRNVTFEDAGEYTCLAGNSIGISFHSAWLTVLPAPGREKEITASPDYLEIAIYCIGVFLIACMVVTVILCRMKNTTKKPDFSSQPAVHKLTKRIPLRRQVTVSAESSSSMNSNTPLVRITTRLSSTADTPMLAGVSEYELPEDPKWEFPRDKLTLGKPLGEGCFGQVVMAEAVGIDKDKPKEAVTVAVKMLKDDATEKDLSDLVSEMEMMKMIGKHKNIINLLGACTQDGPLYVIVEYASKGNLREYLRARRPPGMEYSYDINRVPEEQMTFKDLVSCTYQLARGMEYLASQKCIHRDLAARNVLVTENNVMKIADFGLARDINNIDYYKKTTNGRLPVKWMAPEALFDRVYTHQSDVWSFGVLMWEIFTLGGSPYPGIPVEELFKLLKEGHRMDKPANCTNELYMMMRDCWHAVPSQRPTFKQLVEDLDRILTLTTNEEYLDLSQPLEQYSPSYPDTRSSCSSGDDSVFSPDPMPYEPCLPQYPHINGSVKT
T4 sequence (P22607 23-806): as the sequence (P22607 23-806 V555M) above, with M533V counted along it

SMILES | Kd (FGFR2) | Kd (FGFR4) | Kd (FGFR1) | Kd (FGFR3) | Kd (FGFR3 (V555M))
CN=S(C)(=O)c1ccc(Nc2ncc(Cl)c(-c3c[nH]c4ccccc34)n2)c(OC)c1 (stereo not shown) [Example 37, 5-Chloro-N-[4-(N,S-dimethylsulfonimidoyl)-2-methoxy-phenyl]-4-(1H-indol-3-yl)pyrimidin-2-amine] | 1200 nM | 0.12 µM | 500 nM | 290 nM | 28 nM
COc1cc(N=S2(=O)CCN(C(C)C)CC2)ccc1Nc1ncc(Cl)c(-c2c[nH]c3ccccc23)n1 [Example 40, 5-Chloro-4-(1H-indol-3-yl)-N-[4-[(4-isopropyl-1-oxo-1,4-thiazinan-1-ylidene)amino]-2-methoxy-phenyl]pyrimidin-2-amine] | 860 nM | 0.1 µM | 80 nM | 110 nM | 10 nM
COc1cc(S(C)(=N)=O)ccc1Nc1ncc(Cl)c(-n2ccc3ccccc32)n1 (stereo not shown) [Example 41, 5-chloro-4-indol-1-yl-N-[2-methoxy-4-(methyl-sulfonimidoyl)phenyl]pyrimidin-2-amine] | 18000 nM | 6.3 µM | 9000 nM | 6000 nM | 180 nM
COc1cc(S(C)(=N)=O)ccc1Nc1ncc(C)c(-n2ccc3ccccc32)n1 (stereo not shown) [Example 42, 4-Indol-1-yl-N-[2-methoxy-4-(methylsulfonimidoyl)phenyl]-5-methyl-pyrimidin-2-amine] | 3300 nM | 4.2 µM | 3000 nM | 1800 nM | 110 nM
COc1cc(S(C)(=N)=O)ccc1Nc1nccc(-n2ccc3ccccc32)n1 (stereo not shown) [Example 43, 4-Indol-1-yl-N-[2-methoxy-4-(methylsulfonimidoyl)phenyl]-pyrimidin-2-amine] | 4000 nM | 7.5 µM | 5000 nM | 3400 nM | 680 nM
COc1cc(N2CCS(=N)(=O)CC2)ccc1Nc1ncc(Cl)c(-n2ccc3ccccc32)n1 [Example 44, 5-Chloro-N-[4-(1-imino-1-oxo-1,4-thiazinan-4-yl)-2-methoxy-phenyl]-4-indol-1-yl-pyrimidin-2-amine] | 15000 nM | 4.1 µM | 2200 nM | 2800 nM | 42 nM
COc1cc(N2CCS(=N)(=O)CC2)ccc1Nc1nccc(-n2ccc3ccccc32)n1 [Example 45, N-[4-(1-Imino-1-oxo-1,4-thiazinan-4-yl)-2-methoxy-phenyl]-4-indol-1-yl-pyrimidin-2-amine] | 9000 nM | 5.1 µM | 7800 nM | 4900 nM | 1100 nM
COc1cc(N2CCS(=N)(=O)CC2)ccc1Nc1ncc(C)c(-n2ccc3ccccc32)n1 [Example 46, N-[4-(1-imino-1-oxo-1,4-thiazinan-4-yl)-2-methoxy-phenyl]-4-indol-1-yl-5-methyl-pyrimidin-2-amine] | 4400 nM | 5.6 µM | 2700 nM | 2200 nM | 160 nM
C=CC(=O)Nc1ccc2c(c1)c(C)cn2-c1nc(Nc2ccc(N=S(C)(C)=O)cc2OCC)ncc1Cl [Example 65, N-[1-[5-Chloro-2-[4-[[dimethyl(oxo)-λ^6-sulfanylidene]amino]-2-ethoxy-anilino]pyrimidin-4-yl]-3-methyl-indol-5-yl]prop-2-enamide] | 7900 nM | 1.3 µM | 4000 nM | 1700 nM | 970 nM
CCC(=O)Nc1ccc2c(ccn2-c2nc(Nc3ccc(N=S(C)(C)=O)cc3)ncc2Cl)c1 [Example 68, N-[1-[5-Chloro-2-[4-[[dimethyl(oxo)-λ^6-sulfanylidene]amino]anilino]-pyrimidin-4-yl]indol-5-yl]propanamide] | 340 nM | 2.4 µM | 630 nM | 320 nM | 24 nM
C=CC(=O)Nc1ccc2c(ccn2-c2nc(Nc3ccc(S(C)(=N)=O)cc3OC)ncc2Cl)c1 (stereo not shown) [Example 71, N-[1-[5-chloro-2-[2-methoxy-4-(methylsulfonimidoyl)-anilino]pyrimidin-4-yl]indol-5-yl]prop-2-enamide] | 3000 nM | 3.4 µM | 6000 nM | 1500 nM | 140 nM
CCC(=O)Nc1ccc2c(ccn2-c2nc(Nc3ccc(N4CCS(=N)(=O)CC4)cc3)ncc2Cl)c1 [Example 73, N-[1-[5-chloro-2-[4-(1-imino-1-oxo-1,4-thiazinan-4-yl)anilino]pyrimidin-4-yl]indol-5-yl]propanamide] | 380 nM | 1.3 µM | 290 nM | 180 nM | 18 nM

Now those with a lower Kd (FGFR2), led by results:

Kd (FGFR2) | Kd (FGFR4) | Kd (FGFR1) | Kd (FGFR3) | Kd (FGFR3 (V555M)) | SMILES
200 nM | 0.086 µM | 72 nM | 130 nM | 9 nM | COc1cc(N2CCS(=N)(=O)CC2)ccc1Nc1ncc(Cl)c(-c2c[nH]c3ccccc23)n1 [Example 35, 5-Chloro-N-[4-(1-imino-1-oxo-1,4-thiazinan-4-yl)-2-methoxy-phenyl]-4-(1H-indol-3-yl)pyrimidin-2-amine]
170 nM | 0.066 µM | 58 nM | 57 nM | 6 nM | CCN1CCS(=O)(=Nc2ccc(Nc3ncc(Cl)c(-c4c[nH]c5ccccc45)n3)c(OC)c2)CC1 [Example 39, 5-Chloro-4-(1H-indol-3-yl)-N-[2-methoxy-4-[(4-ethyl-1-oxo-1,4-thiazinan-1-ylidene)-amino]phenyl]pyrimidin-2-amine]
170 nM | 3 µM | 330 nM | 190 nM | 26 nM | Cn1cc(-c2nc(Nc3ccc(S(=N)(=O)C4CC4)cc3)ncc2Cl)c2ccccc21 (stereo not shown) [Example 50, 5-Chloro-N-[4-(cyclopropyl-sulfonimidoyl)phenyl]-4-(1-methylindol-3-yl)pyrimidin-2-amine]
100 nM | 0.24 µM | 77 nM | 17 nM | 5.7 nM | C=CC(=O)Nc1ccc2c(ccn2-c2nc(Nc3ccc(N4CCS(=N)(=O)CC4)cc3)ncc2Cl)c1 [Example 72]
67 nM | 0.057 µM | 72 nM | 89 nM | 4 nM | COc1cc(S(C)(=N)=O)ccc1Nc1ncc(Cl)c(-c2c[nH]c3ccccc23)n1 (stereo not shown) [Example 36, 5-Chloro-4-(1H-indol-3-yl)-N-[2-methoxy-4-(methylsulfonimidoyl)-phenyl]pyrimidin-2-amine]
50 nM | 0.13 µM | 18 nM | 22 nM | 11 nM | CS(C)(=O)=Nc1ccc(Nc2ncc(F)c(-c3c[nH]c4ccccc34)n2)cc1 [Example 59, N-[4-[[Dimethyl(oxo)-λ^6-sulfanylidene]amino]phenyl]-5-fluoro-4-(1H-indol-3-yl)pyrimidin-2-amine]
39 nM | 0.23 µM | 14 nM | 30 nM | 2 nM | Cc1ccc2c(-c3nc(Nc4ccc(N5CCS(=N)(=O)CC5)cc4)ncc3C)c[nH]c2c1 [Example 34, N-[4-(1-imino-1-oxo-1,4-thiazinan-4-yl)phenyl]-5-methyl-4-(6-methyl-1H-indol-3-yl)pyrimidin-2-amine]
19 nM | 0.12 µM | 11 nM | 15 nM | 7 nM | N=S1(=O)CCN(c2ccc(Nc3ncc(F)c(-c4c[nH]c5ccccc45)n3)cc2)CC1 [Example 58, 5-Fluoro-N-[4-(1-imino-1-oxo-1,4-thiazinan-4-yl)phenyl]-4-(1H-indol-3-yl)pyrimidin-2-amine]
16 nM | 0.19 µM | 18 nM | 37 nM | 4 nM | N=S(=O)(c1ccc(Nc2ncc(Cl)c(-c3c[nH]c4ccccc34)n2)cc1)C1CC1 (stereo not shown) [Example 47, 5-Chloro-N-[4-(cyclopropyl-sulfonimidoyl)phenyl]-4-(1H-indol-3-yl)pyrimidin-2-amine]
6 nM | 0.12 µM | 4 nM | 19 nM | 2 nM | COc1cc(Nc2ncc(C)c(-c3c[nH]c4c(OC)cccc34)n2)ccc1N=S(C)(C)=O [Example 33, N-[4-[[dimethyl(oxo)-λ^6-sulfanylidene]amino]-3-methoxy-phenyl]-4-(7-methoxy-1H-indol-3-yl)-5-methyl-pyrimidin-2-amine]
6 nM | 0.16 µM | 7 nM | 16 nM | 2 nM | Cc1cnc(Nc2ccc(S(C)(=N)=O)cc2)nc1-c1c[nH]c2ccccc12 (stereo not shown) [Example 48, 4-(1H-Indol-3-yl)-5-methyl-N-[4-(methylsulfonimidoyl)-phenyl]pyrimidin-2-amine]
